# Data as given in US10370343B2, “[6,6] Fused bicyclic HDAC8 inhibitors” (FORMA Therapeutics, Inc., priority 2015, dated 2019).
# Structures can show the parent of a compound that is named as a salt.
# Target: T1, Full length human recombinant HDAC8 protein (Homo sapiens, UniProt Q9BY41)
# T1 construct: Full length human recombinant HDAC8 protein was expressed in baculoviral system; made in house
# T1 sequence (Q9BY41 1-377): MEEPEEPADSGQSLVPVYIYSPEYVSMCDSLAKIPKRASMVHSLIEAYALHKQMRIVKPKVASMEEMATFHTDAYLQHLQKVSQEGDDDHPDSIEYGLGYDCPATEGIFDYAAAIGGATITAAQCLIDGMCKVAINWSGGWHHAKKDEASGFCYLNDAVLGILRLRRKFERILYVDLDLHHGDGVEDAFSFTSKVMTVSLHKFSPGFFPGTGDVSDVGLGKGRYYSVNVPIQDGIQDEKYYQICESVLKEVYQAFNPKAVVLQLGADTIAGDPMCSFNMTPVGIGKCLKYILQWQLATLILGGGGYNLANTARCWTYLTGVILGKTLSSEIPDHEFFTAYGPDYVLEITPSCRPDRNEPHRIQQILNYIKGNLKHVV
# Test: In vitro histone deacetylase assay: enzymatic HDAC8 electrophoretic mobility shift assay
# Assay type: biochemical
# Conditions: electrophoretic mobility shift assay; enzyme 1 nM; 2 μM fluorescently labeled peptide substrate RHKK(Ac)-NH2; 25° C.; 12 concentrations; read-out: HDAC8 IC50
# Protocol: The enzymatic HDAC8 assay was performed using electrophoretic mobility shift assay. Full length human recombinant HDAC8 protein was expressed in baculoviral system and purified by affinity chromatography. The enzymatic reactions were assembled in 384 well plates in a total volume of 25 μL in a reaction buffer composing: 100 mM HEPES, pH7.5, 25 mM KCl, 0.1% bovine serum albumin, 0.01% Triton X-100, 1% DMSO (from compounds) 2 μM of the fluorescently labeled peptide substrate and enzyme. The enzyme was added at a final concentration of 1 nM. The peptide substrate RHKK(Ac)—NH2 was used. The compounds were tested at 12 concentrations spaced by 3× dilution intervals. Negative control samples (0%-inhibition in the absence of inhibitor) and positive control samples (100%-inhibition) were assembled in replicates of four in each assay plate. The reactions were incubated at 25° C. and quenched by the addition of 45 μL of termination buffer (100 mM HEPES, pH 7.5, 0.01% Triton X-100, 0.05% SDS).
# The terminated assay plates were analyzed on LabChip® 3000 microfluidic electrophoresis instrument (Perkin Elmer/Caliper Life Sciences). The fluorescence intensity of the electrophoretically separated de-acetylated product and substrate peptide was measured. Activity in each sample was determined as the product to sum ratio (PSR): P/(S+P), where P is the peak height of the product peptide and S is the peak height of the substrate peptide. Percent inhibition (Pinh) is determined using the following equation: Pinh=(PSR0%−PSRinh)/(PSR0%−PSR100%)*100, where PSRinh is the product sum ratio in the presence of inhibitor, PSR0% is the average product sum ration in the absence of inhibitor and PSR100% is the average product sum ratio in 100%-inhibition control samples. The IC50 values of inhibitors were determined by fitting the %-inhibition curves with 4 parameter dose-response model using XLfit 4 software.
row,IC50,Structure (SMILES)
1,< 25 nM,"O=C(NO)c1ccc2c(c1)N(Cc1cccc(C(F)(F)F)c1)CCO2 [Compound I-124, N-hydroxy-4-(3-(trifluoromethyl)benzyl)-3,4-dihydro-2H-benzo[b][1,4]oxazine-6-carboxamide]"
2,100 to 1000 nM,"COc1ccc(CN2C(=O)COc3cc(C(=O)NO)ccc32)cc1 [Compound I-89, N-hydroxy-4-(4-methoxybenzyl)-3-oxo-3,4-dihydro-2H-benzo[b][1,4]oxazine-7-carboxamide]"
3,> 1000 nM,"COc1ccc(C(=O)N2CCOc3ccc(C(=O)NO)cc32)cc1 [Compound I-113, N-hydroxy-4-(4-methoxybenzoyl)-3,4-dihydro-2H-benzo[b][1,4]oxazine-6-carboxamide]"
4,< 25 nM,"O=C(NO)c1ccc2c(c1)N(Cc1ccc(C(F)(F)F)cc1)CCS2(=O)=O [Compound I-79, N-hydroxy-4-(4-(trifluoromethyl)benzyl)-3,4-dihydro-2H-benzo[b][1,4]thiazine-6-carboxamide 1,1-dioxide]"
5,100 to 1000 nM,"O=C(NO)c1ccc2c(c1)N(CC1CCOCC1)C(=O)CO2 [Compound I-48, N-hydroxy-3-oxo-4-((tetrahydro-2H-pyran-4-yl)methyl)-3,4-dihydro-2H-benzo[b][1,4]oxazine-6-carboxamide]"
6,25 to 100 nM,"O=C(NO)c1ccc2c(c1)N(Cc1ccccc1)CC(C(=O)N1CC3(CC3)c3ccccc31)O2 (stereo not shown) [Compound I-4, 4-benzyl-N-hydroxy-2-(spiro[cyclopropane-l,3′-indoline]-1′ carbonyl)-3,4-dihydro-2H-benzo[b][1,4]oxazine-6-carboxamide hydrochloride]"
7,> 1000 nM,"CN1CC(C(=O)NC2CCOCC2)Oc2ccc(C(=O)NO)cc21 (stereo not shown) [Compound I-1, N^6-hydroxy-4-methyl-N^2-(tetrahydro-2H-pyran-4-yl)-3,4-dihydro-2H-benzo[b][1,4]oxazine-2,6-dicarboxamide hydrochloride]"
8,25 to 100 nM,"COc1ccc(CN2C(=O)C(C)(C)Oc3ccc(C(=O)NO)cc32)c(Cl)c1 [Compound I-159, 4-(2-chloro-4-methoxybenzyl)-N-hydroxy-2,2-dimethyl-3-oxo-3,4-dihydro-2H-benzo[b][1,4]oxazine-6-carboxamide]"
9,100 to 1000 nM,"O=C(NO)c1ccc2c(c1)N(Cc1ccccc1-c1ccccc1)C(=O)CO2 [Compound I-257, 4-([1,1′-biphenyl]-2-ylmethyl)-N-hydroxy-3-oxo-3,4-dihydro-2H-benzo[b][1,4]oxazine-6-carboxamide]"
10,100 to 1000 nM,"CCC(C)N1C(=O)COc2ccc(C(=O)NO)cc21 (stereo not shown) [Compound I-46, 4-(sec-butyl)-N-hydroxy-3-oxo-3,4-dihydro-2H-benzo[b][1,4]oxazine-6-carboxamide]"
11,> 1000 nM,"O=C(NO)c1ccc2c(c1)N(C(=O)N1CC3(CCOCC3)c3ccccc31)CCO2 [Compound I-156, N-hydroxy-4-(2′,3′,5′,6′-tetrahydrospiro[indoline-3,4′-pyran]-1-carbonyl)-3,4-dihydro-2H-benzo[b][1,4]oxazine-6-carboxamide]"
12,25 to 100 nM,"O=C(NO)c1ccc2c(c1)N(CCOc1ccc(C(F)(F)F)cc1)C(=O)CO2 [Compound I-55, N-hydroxy-3-oxo-4-(2-(4-(trifluoromethyl)phenoxy)ethyl)-3,4-dihydro-2H-benzo[b][1,4]oxazine-6-carboxamide]"
13,25 to 100 nM,"O=C(NO)c1ccc2c(c1)N(Cc1ccccc1OC(F)F)CCO2 [Compound I-131, 4-(2-(difluoromethoxy)benzyl)-N-hydroxy-3,4-dihydro-2H-benzo[b][1,4]oxazine-6-carboxamide]"
14,100 to 1000 nM,"COc1ccc(CN2C(=O)C(C)Oc3cc(C(=O)NO)ccc32)cc1 (stereo not shown) [Compound I-91, N-hydroxy-4-(4-methoxybenzyl)-2-methyl-3-oxo-3,4-dihydro-2H-benzo[b][1,4]oxazine-7-carboxamide]"
15,100 to 1000 nM,"COCCn1c(N2CCCc3ccc(C(=O)NO)cc32)nc2ccccc21 [Compound I-110, N-hydroxy-1-(1-(2-methoxyethyl)-1H-benzo[d]imidazol-2-yl)-1,2,3,4-tetrahydroquinoline-7-carboxamide]"
16,> 1000 nM,"O=C(NO)c1ccc2c(c1)N(c1nc3ccccc3[nH]1)CCO2 [Compound I-108, 4-(1H-benzo[d]imidazol-2-yl)-N-hydroxy-3,4-dihydro-2H-benzo[b][1,4]oxazine-6-carboxamide]"

row,IC50,Structure (SMILES)
1,< 25 nM,"O=C(NO)c1ccc2c(c1)N(Cc1ccccc1Cl)CCO2 [Compound I-128, 4-(2-chlorobenzyl)-N-hydroxy-3,4-dihydro-2H-benzo[b][1,4]oxazine-6-carboxamide]"
2,100 to 1000 nM,"O=C(NO)c1ccc2c(c1)N(Cc1cccc(S(=O)(=O)C(F)(F)F)c1)C(=O)CO2 [Compound I-18, N-hydroxy-3-oxo-4-(3-((trifluoromethyl)sulfonyl)benzyl)-3,4-dihydro-2H-benzo[b][1,4]oxazine-6-carboxamide]"
3,25 to 100 nM,"COc1cccc(CN2CCOc3ccc(C(=O)NO)cc32)c1 [Compound I-121, N-hydroxy-4-(3-methoxybenzyl)-3,4-dihydro-2H-benzo[b][1,4]oxazine-6-carboxamide]"
4,< 25 nM,"O=C(NO)c1ccc2c(c1)N(Cc1cccc(C(F)(F)F)c1)C(=O)CO2 [Compound I-144, N-hydroxy-3-oxo-4-(3-(trifluoromethyl)benzyl)-3,4-dihydro-2H-benzo[b][1,4]oxazine-6-carboxamide]"
5,100 to 1000 nM,"CS(=O)(=O)c1ccc(CN2C(=O)COc3cc(C(=O)NO)ccc32)cc1 [Compound I-90, N-hydroxy-4-(4-(methylsulfonyl)benzyl)-3-oxo-3,4-dihydro-2H-benzo[b][1,4]oxazine-7-carboxamide]"
6,25 to 100 nM,"COc1ccc(CN2c3cc(C(=O)NO)ccc3OCC2C)cc1 (stereo not shown) [Compound I-155, N-hydroxy-4-(4-methoxybenzyl)-3-methyl-3,4-dihydro-2H-benzo[b][1,4]oxazine-6-carboxamide]"
7,25 to 100 nM,"CN1CC(C(=O)NCc2ccccc2)Oc2ccc(C(=O)NO)cc21 (stereo not shown) [Compound I-5, N^2-benzyl-N^6-hydroxy-4-methyl-3,4-dihydro-2H-benzo[b][1,4]oxazine-2,6-dicarboxamide hydrochloride]"
8,< 25 nM,"CC(c1ccc(S(C)(=O)=O)cc1)N1CCS(=O)(=O)c2ccc(C(=O)NO)cc21 (stereo not shown) [Compound I-16, N-hydroxy-4-(1-(4-(methylsulfonyl)phenyl)ethyl)-3,4-dihydro-2H-benzo[b][1,4]thiazine-6-carboxamide-1,1-dioxide]"
9,100 to 1000 nM,"O=C(NO)c1ccc2c(c1)N(Cc1ccccc1OC(F)(F)F)C(=O)CO2 [Compound I-66, N-hydroxy-3-oxo-4-(2-(trifluoromethoxy)benzyl)-3,4-dihydro-2H-benzo[b][1,4]oxazine-6-carboxamide]"
10,100 to 1000 nM,"COc1ccccc1CN1C(=O)COc2ccc(C(=O)NO)cc21 [Compound I-63, N-hydroxy-4-(2-methoxybenzyl)-3-oxo-3,4-dihydro-2H-benzo[b][1,4]oxazine-6-carboxamide]"
11,25 to 100 nM,"O=C(NO)c1ccc2c(c1)N(Cc1cccc(Cl)c1)CCO2 [Compound I-123, 4-(3-chlorobenzyl)-N-hydroxy-3,4-dihydro-2H-benzo[b][1,4]oxazine-6-carboxamide]"
12,> 1000 nM,"CC(C)n1c(CN2CCOc3ccc(C(=O)NO)cc32)nc2ccccc21 [Compound I-28, N-hydroxy-4-((1-isopropyl-1H-benzo[d]imidazol-2-yl)methyl)-3,4-dihydro-2H-benzo[b][1,4]oxazine-6-carboxamide]"
13,100 to 1000 nM,"O=C(NO)c1ccc2c(c1)N(C(=O)C1CCCCC1)CCO2 [Compound I-114, 4-(cyclohexanecarbonyl)-N-hydroxy-3,4-dihydro-2H-benzo[b][1,4]oxazine-6-carboxamide]"
14,< 25 nM,"O=C(NO)c1ccc2c(c1)N(Cc1ccc(F)c(F)c1)C(=O)CO2 [Compound I-71, 4-(3,4-difluorobenzyl)-N-hydroxy-3-oxo-3,4-dihydro-2H-benzo[b][1,4]oxazine-6-carboxamide]"
15,100 to 1000 nM,"CC(c1ccccc1Cl)N1CCOc2ccc(C(=O)NO)cc21 (stereo not shown) [Compound I-136, 4-(1-(2-chlorophenyl)ethyl)-N-hydroxy-3,4-dihydro-2H-benzo[b][1,4]oxazine-6-carboxamide]"
